Here are results for 14 compounds from US11530237B2, “Compositions and methods for treating CNS disorders” (Sage Therapeutics, Inc., priority 2014, dated 2022).

The assay has as its target α1β2γ2 GABAA receptors (Homo sapiens (Human), UniProt P14867+P47870). The assay can be described thus: Patch clamp electrophysiology (QPatch) of recombinant α1β2γ2 GABAA receptors in LTK cells. The format is cell-based. Particulars: 10 μM test article, GABA EC20 = 2 μM, read-out: GABA (α1β2γ2) Qpatch in Ltk, % efficacy at 10 μM. Here is the method: Cellular electrophysiology is used to measure the pharmacological properties of our GABAA receptor modulators in heterologous cell systems. Each compound is tested for its ability to affect GABA mediated currents at a suhmaximal agonist dose (GABA EC20=2 μM). LTK cells are stably transfected with the α1β2γ2 subunits of the GABA receptor and CHO cells are transiently transfected with the α4β3δ subunits via the Lipofecatamine method. Cells were passaged at a confluence of about 50-80% and then seeded onto 35 mm sterile culture dishes containing 2 ml culture complete medium without antibiotics or antimycotics. Confluent clusters of cells are electrically coupled (Pritchett et al., Science, 1988, 242, 1306-1308). Because responses in distant cells are not adequately voltage clamped and because of uncertainties about the extent of coupling (Verdoom et al., Neuron 1990, 4, 919-928), cells were cultivated at a density that enables the recording of single cells (without visible connections to other cells).
Whole cell currents were measured with HEKA EPC-10 amplifiers using PatchMaster software or by using the high throughput QPatch platform (Sophion). Bath solution for all experiments contained (in mM): NaCl 137 mM, KCl 4 mM, CaCl2 1.8 mM, MgCl2 1 mM, HEPES 10 mM, D-Glucose 10 mM, pH (NaOH) 7.4. In some cases 0.005% cremophor was also added. Intracellular (pipette) solution contained: KCl 130 mM, MgCl2 1 mM, Mg-ATP 5 mM, HEPES 10 mM, EGTA 5 mM, pH 7.2. During experiments, cells and solutions were maintained at room temperature (19° C.-30° C.). For manual patch clamp recordings, cell culture dishes were placed on the dish holder of the microscope and continuously perfused (1 ml/min) with bath solution. After formation of a Gigaohm seal between the patch electrodes and the cell (-ipette resistance range: 2.5 MΩ-6.0 MΩ; seal resistance range:>1 GΩ) the cell membrane across the pipette tip was ruptured to assure electrical access to the cell interior (whole-cell patch-configuration). For experiments using the QPatch system, cells were transferred as suspension to the QPatch system in the bath solution and automated whole cell recordings were performed.
Cells were voltage clamped at a holding potential of −80 mV. For the analysis of test articles, GABA receptors were stimulated by 2 μM GABA after sequential pre-incubation of increasing concentrations of the test article. Pre-incubation duration was 30 s and the duration of the GABA stimulus was 2s. Test articles were dissolved in DMSO to form stock solutions (10 mM). Test articles were diluted to 0.01, 0.1, 1, and 10 μM in bath solution. All concentrations of test articles were tested on each cell. The relative percentage potentiation was defined as the peak amplitude in response to GABA EC20 in the presence of the test article divided by the peak amplitude in response to GABA EC20 alone, multiplied by 100. For Table 2. GABAA receptors α1β2γ2 and α4β3δ% efficacy: “A” 10-100, “B”>100-500, “C”>500; D indicates the data is not available or has not been determined.
Background: In patch-clamp work, channel activity is measured electrically.
With `CC(C)Oc1cnn(CC(=O)[C@H]2CC[C@H]3[C@@H]4CC[C@@H]5C[C@](C)(O)CC[C@]5(C)[C@H]4CC[C@]23C)c1` [Compound 173], the Emax at 10 µM fell in the range of 100 to 500%.
On to `COC[C@@]1(O)CC[C@@]2(C)[C@@H](CC[C@@H]3[C@@H]2CC[C@]2(C)[C@@H](C(=O)Cn4cnc(C#N)c4)CC[C@@H]32)C1` [Compound 178], for which the Emax at 10 µM was greater than 500%.
As to `C[C@@]1(O)CC[C@@]2(C)[C@@H](CC[C@@H]3[C@@H]2CC[C@]2(C)[C@@H](C(=O)Cn4nc5ccc(Cl)c(F)c5n4)CC[C@@H]32)C1` [Compound 112], the Emax at 10 µM was 100 to 500%.
With `C[C@@]1(O)CC[C@@]2(C)[C@@H](CC[C@@H]3[C@@H]2CC[C@]2(C)[C@@H](C(=O)Cn4cc(Cl)cn4)CC[C@@H]32)C1` [Compound 137], the Emax at 10 µM fell in the range of 100 to 500%.
In the case of `CNC(=O)c1cnn(CC(=O)[C@H]2CC[C@H]3[C@@H]4CC[C@H]5C[C@@](O)(COC)CC[C@]5(C)[C@H]4CC[C@]23C)c1` [Compound 161], the Emax at 10 µM was in the range of 10 to 100%.
In the case of `CO[C@H]1C[C@@]2(C)[C@@H](CC[C@@H]3[C@@H]2CC[C@]2(C)[C@@H](C(=O)Cn4ccnn4)CC[C@@H]32)C[C@@H]1O` [Compound 3], the Emax at 10 µM was in the range of 100 to 500%.
On to `CCOc1cnn(CC(=O)[C@H]2CC[C@H]3[C@@H]4CC[C@H]5C[C@@](O)(COC)CC[C@]5(C)[C@H]4CC[C@]23C)c1` [Compound 159], for which the Emax at 10 µM was greater than 500%.
For the compound `COc1ccc2nnn(CC(=O)[C@H]3CC[C@H]4[C@@H]5CC[C@H]6C[C@](C)(O)CC[C@]6(C)[C@H]5CC[C@]34C)c2c1` [Compound 126], the Emax at 10 µM lay in the range of 100 to 500%.
The figure for `Cc1cn(CC(=O)[C@H]2CC[C@H]3[C@@H]4CC[C@H]5C[C@](C)(O)CC[C@]5(C)[C@H]4CC[C@]23C)cn1` [Compound 135] is 100 to 500%.
In the case of `CO[C@H]1C[C@@]2(C)[C@@H](CC[C@@H]3[C@@H]2CC[C@]2(C)[C@@H](C(=O)CN4CCOCC4)CC[C@@H]32)C[C@@H]1O` [Compound 1], the Emax at 10 µM was in the range of 100 to 500%.
Consider `C[C@@]1(O)CC[C@@]2(C)[C@@H](CC[C@@H]3[C@@H]2CC[C@]2(C)[C@@H](C(=O)Cn4nc5cccc(F)c5n4)CC[C@@H]32)C1` [Compound 128], for which the Emax at 10 µM lay in the range of 100 to 500%.
`COC[C@@]1(O)CC[C@@]2(C)[C@@H](CC[C@@H]3[C@@H]2CC[C@]2(C)[C@@H](C(=O)Cn4cc(C(F)(F)F)cn4)CC[C@@H]32)C1` [Compound 140]: the Emax at 10 µM was in the range of 100 to 500%.
`Cc1cnn(CC(=O)[C@H]2CC[C@H]3[C@@H]4CC[C@H]5C[C@](C)(O)CC[C@]5(C)[C@H]4CC[C@]23C)c1` [Compound 130]: the Emax at 10 µM was in the range of 100 to 500%.
As to `Cc1cnn(CC(=O)[C@H]2CC[C@H]3[C@@H]4CC[C@@H]5C[C@](C)(O)CC[C@]5(C)[C@H]4CC[C@]23C)c1` [Compound 147], the Emax at 10 µM was greater than 500%.
